Data: patent US20130096135A1, “Selected Inhibitors of Protein Tyrosine Kinase Activity” (METHYLGENE INC., priority 2011, published 2013)
Values after ≈ are worked out from the molar mass of the structure shown.

Assays:
[1] = target: T1, VEGF receptor KDR (VEGFR2) (Homo sapiens, UniProt P35968); assay: In vitro receptor tyrosine kinase assay (VEGF receptor KDR), DELFIA; assay type: biochemical; conditions: recombinant GST-VEGFR2 (806-1356), ATP 0.6 uM, enzyme 5 nM; read-out: VEGFR_IC50_UM
T1 construct: made in house; host or cells: Sf9 cells (Spodoptera frugiperda), baculovirus
Source text: In Vitro Receptor Tyrosine Kinase Assay (VEGF receptor KDR)
This test measures the ability of compounds to inhibit the enzymatic activity of recombinant human VEGF receptor enzymatic activity.
A 1.6-kb cDNA corresponding to the catalytic domain of VEGFR2 (KDR) (Genbank accession number AF035121 amino acid 806 to 1356) is cloned into the Pst I site of the pDEST20 Gateway vector (Invitrogen) for the production of a GST-tagged version of that enzyme. This construct is used to generate recombinant baculovirus using the Bac-to-Bac™ system according to the manufacturer's instructions (Invitrogen).
The GST-VEGFR2806-1356 protein is expressed in Sf9 cells (Spodoptera frugiperda) upon infection with recombinant baculovirus construct. Briefly, Sf9 cells grown in suspension and maintained in serum-free medium (Sf900 II supplemented with gentamycin) at a cell density of about 2×10^6 cells/ml are infected with the above-mentioned viruses at a multiplicity of infection (MOI) of 0.1 during 72 hours at 27° C. with agitation at 120 rpm on a rotary shaker. Infected cells are harvested by centrifugation at 398g for 15 min. Cell pellets are frozen at −80° C. until purification is performed.
All steps described in cell extraction and purification are performed at 4° C. Frozen Sf9 cell pellets infected with the GST-VEGFR2806-1356 recombinant baculovirus are thawed and gently resuspended in Buffer A (PBS pH 7.3 supplemented with 1 μg/ml pepstatin, 2 μg/ml Aprotinin and leupeptin, 50 μg/ml PMSF, 50 μg/ml TLCK and 10 μM E64 and 0.5 mM DTT) using 3 ml of buffer per gram of cells. Suspension is Dounce homogenized and 1% Triton X-100 is added to the homogenate after which it is centrifuged at 22500 g, 30 min., 4 °C. The supernatant (cell extract) is used as starting material for purification of GST-VEGFR2806-1356.
The supernatant is loaded onto a GST-agarose column (Sigma) equilibrated with PBS pH 7.3. Following a four column volume (CV) wash with PBS pH 7.3+1% Triton X-100 and 4 CV wash with buffer B (50mM Tris pH 8.0, 20% glycerol and 100mM NaCl), bound proteins are step eluted with 5 CV of buffer B supplemented with 5 mM DTT and 15 mM glutathion. GST-VEGFR2806-1356 enriched fractions from this chromatography step are pooled based on U.V. trace i.e. fractions with high 0.D.280. Final GST-VEGFR2806-1356 protein preparations concentrations are about 0.7 mg/ml with purity approximating 70%. Purified GST-VEGFR2806-1356 protein stocks are aliquoted and frozen at −80° C. prior to use in enzymatic assay.
Inhibition of VEGFR/KDR is measured in a DELFIATM assay (Perkin Elmer). The substrate poly(Glu4, Tyr) is immobilized onto black high-binding polystyrene 96-well plates. The coated plates are washed and stored at 4° C. During the assay, the enzyme is pre-incubated with inhibitor and Mg-ATP on ice in polypropylene 96-well plates for 4 minutes, and then transferred to the coated plates. The subsequent kinase reaction takes place at 30° C. for 10-30 minutes. ATP concentrations in the assay are 0.6 uM for VEGFR/KDR (2× the Km). Enzyme concentration is 5 nM. After incubation, the kinase reactions are quenched with EDTA and the plates are washed. Phosphorylated product is detected by incubation with Europium-labeled anti-phosphotyrosine MoAb. After washing the plates, bound MoAb is detected by time-resolved fluorescence in a Gemini SpectraMax reader (Molecular Devices). Compounds are evaluated over a range of concentrations, and IC50 values (concentration of compounds giving 50% inhibition of enzymatic activity) are determined.

[2] = Solubility measurements in PBS (pH 7.4), filtration, HPLC-UV; assay type: physicochemical; conditions: PBS (pH 7.4) with 1% DMSO, aqueous buffer, kinetic from dmso stock, PBS pH 7.4, 100 μM test substance, room temperature
Experimental: The solubility of each substance was assessed using MultiScreen® HTS 96-well filtration system (filter; polycarbonate, pore size; 0.4 μm, Millipore). DMSO stock solutions of each test substance (10 mM) were prepared to initiate the assay. The equilibration was performed in PBS (pH 7.4) containing 100 μM of a test substance and 1% DMSO, for 24 hours at room temperature with shaking The concentrations of test substances in each filtrate were determined by HPLC-UV.
HPLC conditions were following:
Waters ACQUITY UPLC H class instrument.
Eluent A: 10 mM aqueous Ammonium formate
Eluent B: 0.1 volume % formic acid in acetonitrile
Flow: 1 mL/min, UV: 316 nm

T1 sequence (P35968 806-1356): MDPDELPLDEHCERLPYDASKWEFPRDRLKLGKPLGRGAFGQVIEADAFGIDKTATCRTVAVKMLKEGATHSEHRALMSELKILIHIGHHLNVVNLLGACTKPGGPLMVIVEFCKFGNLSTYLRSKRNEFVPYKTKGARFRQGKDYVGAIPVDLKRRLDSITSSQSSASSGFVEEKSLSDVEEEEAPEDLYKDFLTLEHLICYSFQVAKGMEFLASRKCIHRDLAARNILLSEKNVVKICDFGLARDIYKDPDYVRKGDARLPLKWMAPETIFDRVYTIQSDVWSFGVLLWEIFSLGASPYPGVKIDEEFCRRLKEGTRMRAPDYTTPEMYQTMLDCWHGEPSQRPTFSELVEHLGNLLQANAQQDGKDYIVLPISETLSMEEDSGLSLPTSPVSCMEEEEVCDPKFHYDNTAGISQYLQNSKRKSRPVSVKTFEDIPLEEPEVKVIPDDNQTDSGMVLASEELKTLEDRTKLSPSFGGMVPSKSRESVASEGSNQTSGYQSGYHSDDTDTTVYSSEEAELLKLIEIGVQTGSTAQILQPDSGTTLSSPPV

Question: Which results are given for `C[C@H](O)CN1CCN(Cc2ccc(-c3cc4nccc(Oc5ccc(NC(=O)NC6CC6)cc5F)c4s3)nc2)CC1` [Compound 30]?
Answer: IC50 [1]: 4 nM; solubility at 24 h [2]: 6.46 µM (≈ 3.73 µg/mL)

Question: With `CC(C)(O)C(=O)N1CCN(Cc2ccc(-c3cc4nccc(Oc5ccc(NC(=O)NC6CC6)cc5F)c4s3)nc2)CC1` [Compound 35-A, 1-Cyclopropyl-3-(3-fluoro-4-(2-(5-((4-(2-hydroxy-2-methylpropanoyl)piperazin-1-yl)methyl)pyridin-2-yl)thieno[3,2-b]pyridin-7-yloxy)phenyl)urea] as the molecule, how does the IC50 [1] read?
Answer: The IC50 was 1 nM.

Question: And the solubility at 24 h [2]?
Answer: Its solubility at 24 h is 1.19 µM (≈ 0.72 µg/mL).

Question: Which IC50 [1] does the source give for `CCCC(=O)OCC(=O)N1CCN(Cc2ccc(-c3cc4nccc(Oc5ccc(NC(=O)NC6CC6)cc5F)c4s3)nc2)CC1` [Compound 79, 2-(4-((6-(7-(4-(3-Cyclopropylureido)-2-fluorophenoxy)thieno[3,2-b]pyridin-2-yl)pyridin-3-yl)methyl)piperazin-1-yl)-2-oxoethyl butyrate] here?
Answer: The IC50 was 19 nM.

Question: With `CC(C)C(=O)OCC(=O)N1CCN(Cc2ccc(-c3cc4nccc(Oc5ccc(NC(=O)NC6CC6)cc5F)c4s3)nc2)CC1` [Compound 80, 2-(4-((6-(7-(4-(3-Cyclopropylureido)-2-fluorophenoxy)thieno[3,2-b]pyridin-2-yl)pyridin-3-yl)methul)piperazin 1-yl)-2-oxoethyl isobutrate] as the molecule, how does the IC50 [1] read?
Answer: The IC50 was 20 nM.

Question: With `O=C(Nc1ccc(Oc2ccnc3cc(-c4ccc(CN5CCN(C(=O)CS)CC5)cn4)sc23)c(F)c1)NC1CC1` [Compound 114, 1-Cyclopropyl-3-(3-fluoro-4-(2-(5-((4-(2-mercaptoacetyl)piperazin-1-yl)methyl)pyridin-2-yl)thieno[3,2-b]pyridin-7-yloxy)phenyl)urea] as the molecule, how does the IC50 [1] read?
Answer: Its IC50 is 10 nM.

Question: For `C[C@@H]1CN(Cc2ccc(-c3cc4nccc(Oc5ccc(NC(=O)NC6CC6)cc5F)c4s3)nc2)CCN1CCO` [Compound 119, (R)-1-cyclopropyl-3-(3-fluoro-4-(2-(5-((4-(2-hydroxyethyl)-3-methylpiperazin-1-yl)methyl)pyridin-2-yl)thieno[3,2-b]pyridin-7-yloxy)phenyl)urea], which IC50 [1] is on record?
Answer: The IC50 was 8 nM.

Question: Which IC50 [1] does the source give for `O=C(Nc1ccc(Oc2ccnc3cc(-c4ccc(CN5CCN(C(=O)COC(=O)CCCC[C@H]6SC[C@H]7NC(=O)N[C@H]76)CC5)cn4)sc23)c(F)c1)NC1CC1` [Compound 120, 2-(4-((6-(7-(4-(3-Cyclopropylureido)-2-fluorophenoxy)thieno[3,2-b]pyridin-2-yl)pyridin-3-yl)methyl)piperazin-1-yl)-2-oxoethyl 5-((3aR,4R,6aS)-2-oxohexahydro-1H-thieno[3,4-d]imidazol-4-yl)pentanoate] here?
Answer: The IC50 was 21 nM.
